# Assay results published in patent US20100130441A1, “USE OF VITAMIN B12 FOR TREATMENT OF MUCOSAL LESIONS” (priority 2007, published 2010).
# “Also recorded” adds a separate entry of the source.
# Assays:
# [1] = tested on: geriatric patients; settings: cited from earlier work
# [2] = tested on: pernicious anemia patients presenting with tobacco amblyopia (optic neuropathy); settings: four patients; parenteral; cyanocobalamin 0.25-1 mg per month, then changed to hydroxocobalamin; cited from earlier work
# [3] = cited from earlier work
# [4] = series of up to 12 injections with 5 mg; cited from earlier work
# [5] = tested on: dialysis patients; settings: cited from earlier work
# [6] = tested on: recurrent aphthous stomatitis (RAS) patients; settings: cited from earlier work
# [7] = tested on: recurrent aphthous stomatitis (RAS) patients; assay: Double-blind, placebo-controlled, randomized clinical trial of vitamin B12 in RAS; format: in vivo, human
# [8] = tested on: recurrent aphthous stomatitis (RAS) patients; assay: Clinical experience: 15 RAS patients treated with vitamin B12 over four years; format: in vivo, human
# Method: Fifteen patients suffering from RAS were treated with vitamin B12 in our clinics over a period of four years. In most cases they have presented to the clinic with unrelated symptoms, and the oral ulcers were incidental findings on physical examination. Patients were asked whether oral ulcers were a recurring problem. Before initiating vitamin B12 therapy, a complete blood count was done and plasma vitamin B12 and folic acid levels were assessed by routine procedures.
# We used one of two therapeutic regimens: • IM injections of vitamin B12 (1000 mcg weekly for the first month, and then 1000 mcg monthly as maintenance therapy) for patients with serum vitamin B12 level below 100 pg/ml, for patients with peripheral neuropathy or macrocytic anemia, and for patients coming from a low socioeconomic level (in Israel, IM vitamin B12 treatment is cheaper than oral vitamin B12). • 2. One sublingual vitamin B12 tablet (1000 mcg) per day. • No other treatment was given for RAS throughout the treatment and follow-up periods. The follow-up period ranged from 3 months to 4 years.
# [9] = tested on: sleep-waking rhythm disorders; settings: 1.5 to 3 mg/day for 8 weeks, n=13; cited from earlier work
substance,measurement,setting,value
cyanocobalamin,Cognitive functions,"[1]; 1 mg intramuscular weekly for 1 month, then monthly for minimum 6 months",cognitive recovery in some patients
same,Adverse effects,[1]; 1 mg intramuscular weekly then monthly,no adverse effects were reported
same,Effect on haematological and visual abnormalities,[2],"restored the haematological, but not the visual abnormalities"
same,"Carcinogenic, mutagenic or teratogenic potential","[3]; Ellenbogen & Cooper, 1991",no reports attributing carcinogenic or mutagenic or teratogenic potential
hydroxocobalamin,Effect on haematological and visual abnormalities,[2],the visual impairment also improved
same,Acne formation (cases),[4],Ten
vitamin B12 (cobalamin),Adverse effects,"[5]; 2.5 mg vitamin B12 in multivitamin preparation, 3 years",no adverse effects were reported
same,Serum vitamin B12 levels at the end of the treatment period,"[5]; 106 patients, multivitamin preparation with 2.5 mg vitamin B12 at end of each dialysis period during 3 years",4 times greater than normal
same,Clinical response of RAS to vitamin B12 administration,[6]; three patients with low serum vitamin B12,rapid improvement and complete recovery within several weeks
same,Recurrence of RAS at six months' follow up,[6]; three patients,no recurrence of RAS
same,Safety and effectiveness of vitamin B12 therapy for RAS,"[7]; double-blind, placebo-controlled, randomized",confirmed the safety and effectiveness; also recorded: established the safety and effectiveness
same,Dependence of patient outcome on initial level of vitamin B12,"[7]; pain, number of ulcers, duration of outbreak",did not depend on initial level of vitamin B12
same,Adverse effects of long-term oral and parenteral supplementation,"[3]; 1-5 mg every fortnight or month, up to at least 5 years, patients with compromised absorption",without any identified adverse effects
same,Adverse effects of excess vitamin B12 intake from food or supplements,"[3]; healthy individuals, EC Scientific Committee on Food opinion",no adverse effects
same,Adverse effects in replacement therapy,[3]; oral or intramuscular dosages between 1-5 mg,no supportive evidence of adverse effects
same,Adverse effects of prolonged oral treatment,"[3]; up to 1000 mcg/day orally, patients with compromised B12 absorption",adverse effects have not been reported
same,Outcome of treatment by initial vitamin B12 level (deficient or borderline vs normal),"[8]; 2 deficient, 3 marginal, 10 normal level patients",no difference in the outcome of treatment
same,"Frequency of RAS during treatment (episodes/month), Mean","[8]; 15 RAS patients, IM 1000 mcg weekly then monthly or sublingual 1000 mcg per day, mean treatment 10.8 ± 9.7 months, before treatment 1.5 ± 1.2",0.1 ± 0.3 episodes/month
same,"Frequency of RAS during treatment (episodes/month), Range","[8]; 15 RAS patients, before treatment range 0.3-4.0",0-1.0 episodes/month
same,Aphthous ulcers in two non-adherent patients once they received regular IM injections,[8]; IM vitamin B12,disappeared completely
same,Patients reporting pronounced reduction in the frequency and severity of RAS episodes,[8]; of 15 patients,four
same,Adverse effects,[9],no adverse effects recorded
